The source made the active and inactive calls. No cut-off for these calls is given here.
Experiments:
[1] = target: T1, Peroxisome proliferator-activated receptor alpha (Homo sapiens) (UniProt Q07869); experiment: (§1) Binding affinity to histidine-tagged human PPARalpha-LBD assessed as recruitment of co-activator peptide fluorescein-labeled PGC1alpha after 2 hrs by TR-FRET assay
T1 sequence (whole entry): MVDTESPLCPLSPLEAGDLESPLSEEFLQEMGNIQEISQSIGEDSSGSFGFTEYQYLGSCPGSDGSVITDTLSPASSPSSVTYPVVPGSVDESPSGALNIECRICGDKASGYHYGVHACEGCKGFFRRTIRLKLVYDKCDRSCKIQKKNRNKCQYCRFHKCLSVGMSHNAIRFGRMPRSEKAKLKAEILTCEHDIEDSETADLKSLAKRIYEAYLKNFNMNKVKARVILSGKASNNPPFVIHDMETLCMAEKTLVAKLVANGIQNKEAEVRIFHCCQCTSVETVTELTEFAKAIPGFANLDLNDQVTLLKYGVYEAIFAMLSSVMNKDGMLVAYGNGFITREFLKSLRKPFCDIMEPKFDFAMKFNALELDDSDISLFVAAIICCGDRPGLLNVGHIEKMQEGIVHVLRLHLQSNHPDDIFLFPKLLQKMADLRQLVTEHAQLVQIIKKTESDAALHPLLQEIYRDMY

[2] = target: T2, Peroxisome proliferator-activated receptor alpha (Homo sapiens, UniProt Q07869); experiment: as §1
T2 sequence (Q07869 whole entry): T1 sequence (whole entry)

[3] = target: T1, Peroxisome proliferator-activated receptor alpha (Homo sapiens); experiment: Binding affinity to histidine-tagged human PPARalpha-LBD by SPR analysis
HepG2 [4] = experiment: Induction of BODIPY-labeled 4,4-difluoro-5-methyl-4-bora-3a,4a-diaza-s-indacene-3-dodecanoic acid uptake in human HepG2 cells after 1 min by FACS analysis; type: functional, cell-based
[5] = target: T1, Peroxisome proliferator-activated receptor alpha (Homo sapiens); experiment: Agonist activity at PPARalpha in human HepG2 cells assessed as up-regulation of FATP4 mRNA expression at 80 uM by quantitative PCR analysis; type: functional, cell-based
[6] = target: T1, Peroxisome proliferator-activated receptor alpha (Homo sapiens); experiment: (§2) Agonist activity at human recombinant PPARalpha expressed in HepG2 cells co-transfected with pGL3-PPRE3-TK-luc reporter assessed as […] after 24 hrs by luciferase based transactivation assay; type: functional, cell-based
[7] = target: T2, Peroxisome proliferator-activated receptor alpha; experiment: as §2; type: functional, cell-based
[8] = target: T1, Peroxisome proliferator-activated receptor alpha (Homo sapiens); experiment: Agonist activity at human recombinant PPARalpha expressed in HepG2 cells co-transfected with pGL3-PPRE3-TK-luc reporter assessed as […] at 80 uM after 24 hrs by luciferase based transactivation assay; type: functional, cell-based
[9] = target: T1, Peroxisome proliferator-activated receptor alpha (Homo sapiens); experiment: Agonist activity at human recombinant PPARalpha expressed in HepG2 cells assessed as binding of activated PPARalpha to the PPRE at 20 uM by ELISA-based assay; type: cell-based
HepG2 [10] = experiment: Hypolipidemic activity in human HepG2 cells assessed as decrease in triglyceride level at 5 uM relative to control; type: functional; design: scale not given: the % may be the effect or the level left
HepG2 [11] = experiment: Hypolipidemic activity in human HepG2 cells assessed as decrease in triglyceride level at 20 uM relative to control; type: functional; design: scale not given: the % may be the effect or the level left
HepG2 [12] = experiment: Hypolipidemic activity in human HepG2 cells assessed as decrease in triglyceride level at 80 uM relative to control; type: functional; design: scale not given: the % may be the effect or the level left
HepG2 [13] = experiment: Hypolipidemic activity in human HepG2 cells assessed as decrease in cholesterol level at 5 uM by fluorescence-based method relative to control; type: functional; design: scale not given: the % may be the effect or the level left
HepG2 [14] = experiment: Hypolipidemic activity in human HepG2 cells assessed as decrease in cholesterol level at 20 uM by fluorescence-based method relative to control; type: functional; design: scale not given: the % may be the effect or the level left
HepG2 [15] = experiment: Hypolipidemic activity in human HepG2 cells assessed as decrease in cholesterol level at 80 uM by fluorescence-based method relative to control; type: functional; design: scale not given: the % may be the effect or the level left
HepG2 [16] = experiment: Induction of BODIPY-labeled 4,4-difluoro-5-methyl-4-bora-3a,4a-diaza-s-indacene-3-dodecanoic acid uptake in human HepG2 cells at 80 uM after 1 min by FACS analysis; type: functional
[17] = target: T1, Peroxisome proliferator-activated receptor alpha (Homo sapiens); experiment: Agonist activity at PPARalpha in human HepG2 cells assessed as up-regulation of FATP4 mRNA expression at 20 uM by quantitative PCR analysis; type: functional, cell-based
[18] = target: T1, Peroxisome proliferator-activated receptor alpha (Homo sapiens); experiment: Agonist activity at PPARalpha in human HepG2 cells assessed as up-regulation of PPARalpha mRNA expression at 5 uM by quantitative PCR analysis; type: functional, cell-based
[19] = target: T1, Peroxisome proliferator-activated receptor alpha (Homo sapiens); experiment: Agonist activity at PPARalpha in human HepG2 cells assessed as up-regulation of PPARalpha mRNA expression at 20 uM by quantitative PCR analysis; type: functional, cell-based
[20] = target: T1, Peroxisome proliferator-activated receptor alpha (Homo sapiens); experiment: Agonist activity at PPARalpha in human HepG2 cells assessed as up-regulation of PPARalpha mRNA expression at 80 uM by quantitative PCR analysis; type: functional, cell-based
[21] = target: T1, Peroxisome proliferator-activated receptor alpha (Homo sapiens); experiment: Agonist activity at PPARalpha in human HepG2 cells assessed as up-regulation of acyl-CoA synthetase mRNA expression at 5 to 80 uM by quantitative PCR analysis; type: functional, cell-based
[22] = target: T1, Peroxisome proliferator-activated receptor alpha (Homo sapiens); experiment: Agonist activity at PPARalpha in human HepG2 cells assessed as up-regulation of carnitine palmitoyl transferase mRNA expression at 80 uM by quantitative PCR analysis relative to control; type: functional, cell-based
[23] = target: T1, Peroxisome proliferator-activated receptor alpha (Homo sapiens); experiment: Agonist activity at PPARalpha in human HepG2 cells assessed as down-regulation of FAS mRNA expression at 80 uM by quantitative PCR analysis; type: functional, cell-based
[24] = target: T1, Peroxisome proliferator-activated receptor alpha (Homo sapiens); experiment: Agonist activity at PPARalpha in human HepG2 cells assessed as effect on LPL mRNA expression at 5 to 80 uM by quantitative PCR analysis; type: functional, cell-based
[25] = target: T1, Peroxisome proliferator-activated receptor alpha (Homo sapiens); experiment: Agonist activity at PPARalpha in human HepG2 cells assessed as down-regulation of SCD1 mRNA expression at 80 uM by quantitative PCR analysis; type: functional, cell-based
[26] = target: T1, Peroxisome proliferator-activated receptor alpha (Homo sapiens); experiment: Agonist activity at PPARalpha in human HepG2 cells assessed as down-regulation of SREBP1c mRNA expression at 80 uM by quantitative PCR analysis; type: functional, cell-based
[27] = target: T1, Peroxisome proliferator-activated receptor alpha (Homo sapiens); experiment: Agonist activity at PPARalpha in human HepG2 cells assessed as up-regulation of ACOX mRNA level at 80 uM by quantitative PCR analysis; type: functional, cell-based

CC(C)(Oc1ccc(C(=O)c2ccc(Cl)cc2)cc1)C(=O)O [FENOFIBRIC ACID]
Activity [1]: Dose-dependent effect
EC50 [2]: 4.5 µM
Activity [3]: Active
Activity (HepG2 [4]): Dose-dependent effect

C[C@H]1[C@H](C)CC[C@]2(C(=O)O)CC[C@]3(C)C(=CC[C@@H]4[C@@]5(C)CC[C@H](O)C(C)(C)[C@@H]5CC[C@]43C)[C@H]12 [URSOLIC ACID]
Activity [5]: 259%
Activity [6]: Dose-dependent effect
EC50 [7]: 41.3 µM
Activity [8]: 214%
Activity [9]: 46%
Activity [1]: inactive
Activity [3]: inactive
Activity (HepG2 [10]): 23.5%
Activity (HepG2 [11]): 38.8%
Activity (HepG2 [12]): 44.7%
Activity (HepG2 [13]): 11%
Activity (HepG2 [14]): 18.9%
Activity (HepG2 [15]): 26.5%
Activity (HepG2 [16]): 108.7%
Activity [17]: 185%
Activity [18]: 134%
Activity [19]: 156%
Activity [20]: 195%
Activity [21]: Active
Activity [22]: 1020%
Activity [23]: 23%
Activity [24]: inactive
Activity [25]: 15%
Activity [26]: 28%
Activity [27]: 24%
